Data: publication PMC10763724 (Molecular cancer therapeutics, 2019)
Like-named read-outs stand apart in the source and are kept apart here. Values belong to the molecule of their own block, whether it stands above or below them.

Experiments:
ALDH2 [1] = conditions: read-out: IC50 for ALDH2; cited from earlier work
ALDH1A1 [2] = conditions: cited from earlier work
HNSCC xenograft models = conditions: 24 mg/kg/day, implantable osmotic mini pumps; cited from earlier work
ALDH3A1 [3] = conditions: cited from earlier work
ALDH1A1 [4] = biological target: T1, ALDH1A1 (Homo sapiens, UniProt P00352); test: ALDH1A1 isoform-specific enzyme assay; format: biochemical; conditions: 15 minutes preincubation
T1 sequence (P00352 1-501): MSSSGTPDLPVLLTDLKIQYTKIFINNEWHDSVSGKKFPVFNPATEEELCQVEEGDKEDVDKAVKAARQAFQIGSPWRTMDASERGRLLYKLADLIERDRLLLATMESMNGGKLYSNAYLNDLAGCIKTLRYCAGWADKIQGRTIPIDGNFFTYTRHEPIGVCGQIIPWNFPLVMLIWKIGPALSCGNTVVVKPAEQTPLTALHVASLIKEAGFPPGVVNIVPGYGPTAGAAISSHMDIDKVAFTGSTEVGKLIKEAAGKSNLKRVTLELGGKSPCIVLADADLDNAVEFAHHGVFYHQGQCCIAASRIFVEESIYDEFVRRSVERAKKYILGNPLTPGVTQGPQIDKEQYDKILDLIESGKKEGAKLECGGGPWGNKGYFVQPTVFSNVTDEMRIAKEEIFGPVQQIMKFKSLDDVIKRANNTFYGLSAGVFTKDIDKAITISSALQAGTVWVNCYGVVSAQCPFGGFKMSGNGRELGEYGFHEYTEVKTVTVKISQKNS

ALDH2 [5] = biological target: T2, ALDH2 (Homo sapiens, UniProt P05091); test: ALDH2 isoform-specific enzyme assay; format: biochemical; conditions: read-out: IC50s ALDH2; acetaldehyde substrate, 15 minutes preincubation
T2 sequence (P05091 18-517): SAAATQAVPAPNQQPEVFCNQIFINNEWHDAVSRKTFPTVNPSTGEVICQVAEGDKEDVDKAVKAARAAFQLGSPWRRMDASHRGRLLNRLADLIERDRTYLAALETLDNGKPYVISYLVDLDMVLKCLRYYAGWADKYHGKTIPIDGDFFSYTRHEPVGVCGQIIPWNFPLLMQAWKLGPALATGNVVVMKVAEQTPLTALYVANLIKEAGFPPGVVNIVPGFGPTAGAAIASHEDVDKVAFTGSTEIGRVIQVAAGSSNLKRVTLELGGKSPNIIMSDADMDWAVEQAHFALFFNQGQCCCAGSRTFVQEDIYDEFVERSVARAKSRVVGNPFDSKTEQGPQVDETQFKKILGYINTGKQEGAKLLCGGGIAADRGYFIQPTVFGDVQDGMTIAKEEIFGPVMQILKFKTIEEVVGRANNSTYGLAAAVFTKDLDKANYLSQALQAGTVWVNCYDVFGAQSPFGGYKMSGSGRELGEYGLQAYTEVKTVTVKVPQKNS

[6] = tested on: UACC 903 and 1205 Lu cells; test: Lipid peroxidation; format: cell-based, human; conditions: 5 μmol/L, 24 hours
[7] = tested on: UACC 903 and 1205 Lu cells; test: ROS assay; format: cell-based, human; conditions: 5 μmol/L, 24 hours
ALDH3A1 [8] = biological target: T3, ALDH3A1 (Homo sapiens, UniProt P30838); test: ALDH3A1 isoform-specific enzyme assay; format: biochemical; conditions: 15 minutes preincubation
T3 sequence (P30838 1-453): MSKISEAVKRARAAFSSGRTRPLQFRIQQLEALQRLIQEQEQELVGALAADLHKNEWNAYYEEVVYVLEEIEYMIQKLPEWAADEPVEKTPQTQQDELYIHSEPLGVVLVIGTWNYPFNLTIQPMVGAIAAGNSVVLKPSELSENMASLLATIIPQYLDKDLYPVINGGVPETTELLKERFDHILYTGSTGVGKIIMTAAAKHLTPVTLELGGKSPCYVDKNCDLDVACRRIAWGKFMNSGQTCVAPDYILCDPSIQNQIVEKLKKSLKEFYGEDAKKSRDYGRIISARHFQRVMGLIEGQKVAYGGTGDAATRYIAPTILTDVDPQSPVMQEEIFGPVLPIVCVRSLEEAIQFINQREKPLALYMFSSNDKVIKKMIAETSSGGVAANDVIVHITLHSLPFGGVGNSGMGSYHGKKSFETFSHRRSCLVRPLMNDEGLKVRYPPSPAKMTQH

UACC 903 cells = test: MTS cell viability assay, UACC 903; format: cell-based, human; conditions: 100 μmol/L, 72 hours
[9] = tested on: total cellular ALDH activity, 1205 Lu cell lysates; test: Total cellular ALDH activity assay, 1205 Lu cell lysates; format: biochemical, human; conditions: 1 μmol/L, 15 minutes
[10] = tested on: total cellular ALDH activity, UACC 903 cell lysates; test: Total cellular ALDH activity assay, UACC 903 cell lysates; format: biochemical, human; conditions: 1 μmol/L, 15 minutes

Structure (SMILES): CN(C)CCC(=O)c1ccc(Br)cc1 [Aldi-6]
IC50 (ALDH2 [1]): 0.8 µM | IC50 (ALDH1A1 [2]; read-out: IC50 for ALDH1A1): 0.6 µM | tumor reduction in HNSCC xenograft models (HNSCC xenograft models): 60% | IC50 (ALDH3A1 [3]; read-out: IC50 for ALDH3A1): 1 µM

IC50 (ALDH1A1 [4]; read-out: IC50s ALDH1A1, propionaldehyde substrate): 139 µM | IC50 (ALDH2 [5]): 144 µM
Structure (SMILES): Cc1nc2ccccc2n1S(=O)(=O)c1ccc(F)cc1 [CB7]

Structure (SMILES): CCOC(=O)CSc1nc2c(sc3ccccc32)c(=O)n1CCCN1CCCC1 [CM037]
lipid peroxidation and toxic aldehyde accumulation [6]: significantly increased lipid peroxidation and toxic aldehyde accumulation | ROS levels [7]: significantly increased ROS levels

Structure (SMILES): CCN(CC)c1ccc(C=O)cc1 [DEAB]
IC50 (ALDH3A1 [8]; read-out: IC50s ALDH3A1, 4-nitrobenzaldehyde substrate): 15.1 µM | lipid peroxidation and toxic aldehyde accumulation [6]: significantly increased lipid peroxidation and toxic aldehyde accumulation | ROS levels [7]: significantly increased ROS levels | reduction of UACC 903 cell survival (UACC 903 cells): 30%

Structure (SMILES): CSC(=O)C#CC(C)(C)N(C)C [DIMATE, 4-dimethylamino-4-methyl–pent-2-ynthioic acid-S-methylester]
IC50 (ALDH1A1 [2]; read-out: IC50 toward ALDH1A1): 5 µM | IC50 (ALDH3A1 [3]; read-out: IC50 toward ALDH3A1): 5 µM

IC50 (ALDH3A1 [8]; IC50s ALDH3A1, 4-nitrobenzaldehyde substrate): 5.05 µM | IC50 (ALDH1A1 [4]; IC50s ALDH1A1, propionaldehyde substrate): 15.6 µM
Structure (SMILES): O=C1Nc2ccccc2C1=O [Isatin]
reduction of total cellular ALDH activity, 1205 Lu [9]: ineffective | reduction of total cellular ALDH activity, UACC 903 [10]: ineffective
